Tests used:
[1] = molecular target: recombinant human SGK-1 enzyme (Homo sapiens, UniProt O00141); assay: Enzymatic activity assay: SGK-1 substrate peptide phosphorylation (Caliper lab-chip mobility shift); format: biochemical; details: peptide substrate 1 μM, ATP 10 μM, 60 min at 37° C., read-out: IC50 values for inhibition of SGK-1 enzymatic activity
[2] = test system: SGK-1 dependent phosphorylation of GSK3beta in U2OS cells; assay: SGK-1 dependent phosphorylation of GSK3beta in U2OS cells overexpressing recombinant SGK-1 and GSK3beta; format: cell-based, human; details: U2OS cells, 6 h incubation, ratio of phosphorylated GSK3beta to total GSK3beta; read-out: IC50 values for inhibition of SGK-1 dependent phosphorylation of GSK3beta in U2OS cells

recombinant human SGK-1 enzyme, sequence (O00141 whole entry, looked up): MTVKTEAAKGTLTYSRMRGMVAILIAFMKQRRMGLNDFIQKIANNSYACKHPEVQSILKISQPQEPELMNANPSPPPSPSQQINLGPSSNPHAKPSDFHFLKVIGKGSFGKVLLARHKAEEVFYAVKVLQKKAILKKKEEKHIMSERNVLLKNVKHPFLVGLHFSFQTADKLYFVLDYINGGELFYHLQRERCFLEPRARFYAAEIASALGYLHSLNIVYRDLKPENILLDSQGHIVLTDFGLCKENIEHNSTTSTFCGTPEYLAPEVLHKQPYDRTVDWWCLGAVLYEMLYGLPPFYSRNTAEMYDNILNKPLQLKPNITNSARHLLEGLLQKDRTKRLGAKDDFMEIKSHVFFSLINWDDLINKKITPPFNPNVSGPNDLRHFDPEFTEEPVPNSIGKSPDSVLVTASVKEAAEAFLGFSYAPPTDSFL

Compound	IC50 [1] [nM]	IC50 [2] [nM]
Cc1n[nH]c2nc(-c3ccc(NS(=O)(=O)c4cc(Cl)ccc4Cl)cc3)nc(OCCCN)c12 [Example 210]	< 1.5	98
Cc1n[nH]c2nc(-c3ccc(NS(=O)(=O)c4ccccc4F)cc3)nc(OCCCN)c12 [Example 211]	2.3	80
COc1ccc(Cl)c(S(=O)(=O)Nc2ccc(-c3nc(OCCCN)c4c(C)n[nH]c4n3)cc2)c1 [Example 212]	< 1.5	110
Cc1ccc(C#N)c(S(=O)(=O)Nc2ccc(-c3nc(OCCCN)c4c(C)n[nH]c4n3)cc2)c1 [Example 213]	6.4	190
Cc1n[nH]c2nc(-c3ccc(NS(=O)(=O)c4cc(Cl)ccc4Cl)cc3)nc(OC3CCC(O)CC3)c12 (stereo not shown) [Example 214]	69	130
Cc1n[nH]c2nc(-c3ccc(NS(=O)(=O)c4cc(F)ccc4F)cc3)nc(OC3CCC(O)CC3)c12 (stereo not shown) [Example 217]	9.1	190
COc1ccc(F)c(S(=O)(=O)Nc2ccc(-c3nc(OCCCN)c4cn[nH]c4n3)cc2)c1 [Example 219]	< 1.5	230
Cc1n[nH]c2nc(-c3ccc(NS(=O)(=O)c4cc(Cl)ccc4C#N)cc3)nc(OCCCN)c12 [Example 220]	< 1.5	170
Cc1ccc(F)c(S(=O)(=O)Nc2ccc(-c3nc(OCC4CNCCO4)c4c(C)n[nH]c4n3)cc2)c1 (stereo not shown) [Example 288]	2.3	61
Cc1n[nH]c2nc(-c3ccc(NS(=O)(=O)c4ccccc4F)cc3)nc(OCC3CNCCO3)c12 (stereo not shown) [Example 289]	23	200
COc1ccc(Cl)c(S(=O)(=O)Nc2ccc(-c3nc(OCC4CNCCO4)c4c(C)n[nH]c4n3)cc2)c1 (stereo not shown) [Example 290]	3.3	15
Cc1n[nH]c2nc(-c3ccc(NS(=O)(=O)c4cc(Cl)ccc4F)cc3)nc(OCC3CNCCO3)c12 (stereo not shown) [Example 291]	2.5	76
Cc1n[nH]c2nc(-c3ccc(NS(=O)(=O)c4cc(F)ccc4F)cc3)nc(OCC3CNCCO3)c12 (stereo not shown) [Example 292]	14	930
Cc1ccc(C#N)c(S(=O)(=O)Nc2ccc(-c3nc(OCC4CNCCO4)c4c(C)n[nH]c4n3)cc2)c1 (stereo not shown) [Example 293]	3.2	630
COc1ccc(F)c(S(=O)(=O)Nc2ccc(-c3nc(OC4CCCNC4)c4c(C)n[nH]c4n3)cc2)c1 (stereo not shown) [Example 294]	3.5	270
COc1ccc(F)c(S(=O)(=O)Nc2ccc(-c3nc(OCC4CNCCO4)c4c(C)n[nH]c4n3)cc2)c1 (stereo not shown) [Example 295]	2.6	25
Cc1n[nH]c2nc(-c3ccc(NS(=O)(=O)c4cc(F)ccc4F)cc3)nc(OC3CCNCC3F)c12 (stereo not shown) [Example 296]	2.7	60
Cc1n[nH]c2nc(-c3ccc(NS(=O)(=O)c4ccccc4F)cc3)nc(OC3CCNCC3F)c12 (stereo not shown) [Example 297]	1.8	80
Cc1ccc(F)c(S(=O)(=O)Nc2ccc(-c3nc(OC4CCNCC4F)c4c(C)n[nH]c4n3)cc2)c1 (stereo not shown) [Example 298]	2.3	43
Cc1n[nH]c2nc(-c3ccc(NS(=O)(=O)c4cc(Cl)ccc4C#N)cc3)nc(OC3CCNCC3F)c12 (stereo not shown) [Example 299]	3.3	410
Cc1ccc(C#N)c(S(=O)(=O)Nc2ccc(-c3nc(OC4CCNCC4F)c4c(C)n[nH]c4n3)cc2)c1 (stereo not shown) [Example 300]	1.1	92
COc1ccc(F)c(S(=O)(=O)Nc2ccc(-c3nc(OC4CCNCC4F)c4c(C)n[nH]c4n3)cc2)c1 (stereo not shown) [Example 302]	1.9	86

Compound	IC50 [1] [nM]	IC50 [2] [nM]
Cc1n[nH]c2nc(-c3ccc(NS(=O)(=O)c4cc(Cl)ccc4Cl)cc3)nc(OC3CCNCC3F)c12 (stereo not shown) [Example 303]	2.2	57
COc1ccc(Cl)c(S(=O)(=O)Nc2ccc(-c3nc(OC4CCNCC4F)c4c(C)n[nH]c4n3)cc2)c1 (stereo not shown) [Example 304]	2.3	130
O=S(=O)(Nc1ccc(-c2nc(OCC3CNCCO3)c3cn[nH]c3n2)cc1)c1cc(Cl)ccc1F (stereo not shown) [Example 305]	10	89
COc1ccc(Cl)c(S(=O)(=O)Nc2ccc(-c3nc(OCC4CNCCO4)c4cn[nH]c4n3)cc2)c1 (stereo not shown) [Example 306]	7.1	19
COc1ccc(F)c(S(=O)(=O)Nc2ccc(-c3nc(OCC4CNCCO4)c4cn[nH]c4n3)cc2)c1 (stereo not shown) [Example 309]	2.8	160
O=S(=O)(Nc1ccc(-c2nc(OCC3CNCCO3)c3cn[nH]c3n2)cc1)c1cc(F)ccc1F (stereo not shown) [Example 311]	240	92
O=S(=O)(Nc1ccc(-c2nc(OCC3CNCCO3)c3cn[nH]c3n2)cc1)c1cc(Cl)ccc1Cl (stereo not shown) [Example 312]	6	130
Cc1n[nH]c2nc(-c3ccc(NS(=O)(=O)c4cc(Cl)ccc4Cl)cc3)nc(OCC3CNCCO3)c12 (stereo not shown) [Example 313]	2	47
Cc1ccc(C#N)c(S(=O)(=O)Nc2ccc(-c3nc(OC4CCN(C)CC4)c4cn[nH]c4n3)cc2)c1 [Example 314]	4.5	250
Cc1ccc(C#N)c(S(=O)(=O)Nc2ccc(-c3nc(OCC4CNCCO4)c4cn[nH]c4n3)cc2)c1 (stereo not shown) [Example 315]	7.9	600
CC(C)COc1nc(-c2ccc(NS(=O)(=O)c3ccccc3Cl)cc2)nc2[nH]nc(N)c12 [Example 316]	480	270
COc1ccc(Cl)c(S(=O)(=O)Nc2ccc(-c3nc(OC4CCCNC4)c4c(C)n[nH]c4n3)cc2)c1 (stereo not shown) [Example 319]	4.5	31
Cc1ccc(C#N)c(S(=O)(=O)Nc2ccc(-c3nc(OC4CCCNC4)c4c(C)n[nH]c4n3)cc2)c1 (stereo not shown) [Example 320]	3.7	57
Cc1n[nH]c2nc(-c3ccc(NS(=O)(=O)c4ccccc4F)cc3)nc(OC3CCCNC3)c12 (stereo not shown) [Example 323]	12	100
CC(C)COc1nc(-c2ccc(NS(=O)(=O)c3cccc(F)c3Cl)cc2)nc2[nH]nc(N)c12 [Example 324]	330	330
COc1ccc(F)c(S(=O)(=O)Nc2ccc(-c3nc(OCC(C)C)c4c(N)n[nH]c4n3)cc2)c1 [Example 326]	9.1	160
CC(C)COc1nc(-c2ccc(NS(=O)(=O)c3cccc(Cl)c3F)cc2)nc2[nH]nc(N)c12 [Example 327]	420	430
CC(C)COc1nc(-c2ccc(NS(=O)(=O)c3cc(Cl)sc3Cl)cc2)nc2[nH]nc(N)c12 [Example 330]	100	230
CC(C)COc1nc(-c2ccc(NS(=O)(=O)c3ccccc3F)cc2)nc2[nH]nc(N)c12 [Example 331]	290	240
COc1ccc(Cl)c(S(=O)(=O)Nc2ccc(-c3nc(OCC(C)C)c4c(N)n[nH]c4n3)cc2)c1 [Example 332]	27	190
Cc1ccc(C#N)c(S(=O)(=O)Nc2ccc(-c3nc(OCC(C)C)c4c(N)n[nH]c4n3)cc2)c1 [Example 333]	14	1300
CC(C)COc1nc(-c2ccc(NS(=O)(=O)c3cc(Cl)ccc3F)cc2)nc2[nH]nc(N)c12 [Example 334]	20	720
